From ChEMBL document CHEMBL1201862, “PubChem BioAssay data set” (2004)
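The compound was tested at five concentrations on cells cultured in 96-well plates, with a 48-hour exposure period. GI50 = concentration required for 50% inhibition of growth.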 Active and inactive are the calls of the source. No stated cut-off is given here; in the data, active = GI50 up to about 1.1 µM and inactive = higher.

Key:
Experiment in all cases: NCI anticancer screen, dose series, 48 h
A498 = tested on: A498
K562 = tested on: K562
NCI-H226 = tested on: NCI-H226
PC-3 = tested on: PC-3
HCC 2998 = tested on: HCC 2998
UO-31 = tested on: UO-31
MDA-N = tested on: MDA-N
OVCAR-3 = tested on: OVCAR-3
MDA-MB-435 = tested on: MDA-MB-435
HOP-62 = tested on: HOP-62
SK-MEL-2 = tested on: SK-MEL-2
RPMI-8226 = tested on: RPMI-8226
M14 = tested on: M14
SF-295 = tested on: SF-295
KM12 = tested on: KM12
786-0 = tested on: 786-0
EKVX = tested on: EKVX
MOLT-4 = tested on: MOLT-4
CAKI-1 = tested on: CAKI-1
MDA-MB-231 = tested on: MDA-MB-231
SNB-19 = tested on: SNB-19
OVCAR-5 = tested on: OVCAR-5
T47D = tested on: T47D
SF-268 = tested on: SF-268
SN12C = tested on: SN12C
HCT-116 = tested on: HCT-116
UACC-257 = tested on: UACC-257
HT-29 = tested on: HT-29
SK-MEL-28 = tested on: SK-MEL-28
OVCAR-8 = tested on: OVCAR-8
CCRF-CEM = tested on: CCRF-CEM
A549 = tested on: A549
NCI-H23 = tested on: NCI-H23
ACHN = tested on: ACHN
UACC-62 = tested on: UACC-62
U-251 = tested on: U-251
OVCAR-4 = tested on: OVCAR-4
SF-539 = tested on: SF-539
SW-620 = tested on: SW-620
Hs-578T = tested on: Hs-578T
HCT-15 = tested on: HCT-15
NCI-H460 = tested on: NCI-H460
MCF7 = tested on: MCF7
NCI/ADR-RES = tested on: NCI/ADR-RES
SK-OV-3 = tested on: SK-OV-3
COLO 205 = tested on: COLO 205
Malme-3M = tested on: Malme-3M
BT-549 = tested on: BT-549
SNB-75 = tested on: SNB-75
DU-145 = tested on: DU-145
LOX IMVI = tested on: LOX IMVI
RXF 393 = tested on: RXF 393
TK-10 = tested on: TK-10
HOP-92 = tested on: HOP-92
NCI-H522 = tested on: NCI-H522
HL-60 = tested on: HL-60
IGROV-1 = tested on: IGROV-1
SK-MEL-5 = tested on: SK-MEL-5

O=C(O)c1ccc(N/C(=C(/C(Cl)=C(Cl)Cl)[N+](=O)[O-])n2nnc3ccccc32)cc1
GI50 (A498): > 100 µM (inactive)
GI50 (K562): > 100 µM (inactive)
GI50 (NCI-H226): > 100 µM (inactive)
GI50 (PC-3): > 100 µM (inactive)
GI50 (HCC 2998): > 100 µM (inactive)
GI50 (UO-31): > 100 µM (inactive)
GI50 (MDA-N): > 100 µM (inactive)
GI50 (OVCAR-3): > 100 µM (inactive)
GI50 (MDA-MB-435): > 100 µM (inactive)
GI50 (HOP-62): > 100 µM (inactive)
GI50 (SK-MEL-2): > 100 µM (inactive)
GI50 (RPMI-8226): > 100 µM (inactive)
GI50 (M14): > 100 µM (inactive)
GI50 (SF-295): > 100 µM (inactive)
GI50 (KM12): > 100 µM (inactive)
GI50 (786-0): > 100 µM (inactive)
GI50 (EKVX): > 100 µM (inactive)
GI50 (MOLT-4): > 100 µM (inactive)
GI50 (CAKI-1): > 100 µM (inactive)
GI50 (MDA-MB-231): > 100 µM (inactive)
GI50 (SNB-19): > 100 µM (inactive)
GI50 (OVCAR-5): > 100 µM (inactive)
GI50 (T47D): > 100 µM (inactive)
GI50 (SF-268): > 100 µM (inactive)
GI50 (SN12C): > 100 µM (inactive)
GI50 (HCT-116): > 100 µM (inactive)
GI50 (UACC-257): > 100 µM (inactive)
GI50 (HT-29): > 100 µM (inactive)
GI50 (SK-MEL-28): > 100 µM (inactive)
GI50 (OVCAR-8): > 100 µM (inactive)
GI50 (CCRF-CEM): > 100 µM (inactive)
GI50 (A549): > 100 µM (inactive)
GI50 (NCI-H23): > 100 µM (inactive)
GI50 (ACHN): > 100 µM (inactive)
GI50 (UACC-62): > 100 µM (inactive)
GI50 (U-251): > 100 µM (inactive)
GI50 (OVCAR-4): > 100 µM (inactive)
GI50 (SF-539): > 100 µM (inactive)
GI50 (SW-620): > 100 µM (inactive)
GI50 (Hs-578T): > 100 µM (inactive)
GI50 (HCT-15): > 100 µM
GI50 (NCI-H460): > 100 µM (inactive)
GI50 (MCF7): > 100 µM (inactive)
GI50 (NCI/ADR-RES): > 100 µM (inactive)
GI50 (SK-OV-3): > 100 µM (inactive)
GI50 (COLO 205): > 100 µM (inactive)
GI50 (Malme-3M): > 100 µM (inactive)
GI50 (BT-549): > 100 µM (inactive)

O=[N+]([O-])/C(C(Cl)=C(Cl)Cl)=C(\Nc1cccc2ccccc12)n1nnc2ccccc21
GI50 (A498): 33.5 µM (inactive)
GI50 (NCI-H226): 71.3 µM (inactive)
GI50 (PC-3): 47.1 µM (inactive)
GI50 (HCC 2998): > 100 µM (inactive)
GI50 (UO-31): 98.4 µM (inactive)
GI50 (MDA-N): > 100 µM (inactive)
GI50 (OVCAR-3): 46.8 µM (inactive)
GI50 (MDA-MB-435): 53.7 µM (inactive)
GI50 (HOP-62): 32.4 µM (inactive)
GI50 (SNB-75): 86.5 µM (inactive)
GI50 (SK-MEL-2): 38.4 µM (inactive)
GI50 (RPMI-8226): 23.3 µM (inactive)
GI50 (M14): > 100 µM (inactive)
GI50 (SF-295): 32.1 µM (inactive)
GI50 (KM12): 30.7 µM (inactive)
GI50 (786-0): > 100 µM (inactive)
GI50 (EKVX): > 100 µM (inactive)
GI50 (CAKI-1): > 100 µM (inactive)
GI50 (MDA-MB-231): 47.1 µM (inactive)
GI50 (SNB-19): 32.9 µM (inactive)
GI50 (OVCAR-5): 42 µM (inactive)
GI50 (T47D): > 100 µM (inactive)
GI50 (SF-268): 48 µM (inactive)
GI50 (SN12C): > 100 µM (inactive)
GI50 (HCT-116): 34.1 µM (inactive)
GI50 (UACC-257): > 100 µM (inactive)
GI50 (HT-29): 63.5 µM (inactive)
GI50 (SK-MEL-28): > 100 µM (inactive)
GI50 (DU-145): > 100 µM (inactive)
GI50 (LOX IMVI): 35.4 µM (inactive)
GI50 (OVCAR-8): 73.6 µM (inactive)
GI50 (CCRF-CEM): 28.9 µM (inactive)
GI50 (A549): 77.3 µM (inactive)
GI50 (NCI-H23): 37.6 µM (inactive)
GI50 (ACHN): > 100 µM (inactive)
GI50 (UACC-62): 40.9 µM (inactive)
GI50 (U-251): 33 µM (inactive)
GI50 (OVCAR-4): 33.3 µM (inactive)
GI50 (SF-539): > 100 µM (inactive)
GI50 (SW-620): 58.5 µM (inactive)
GI50 (Hs-578T): 9.31 µM (inactive)
GI50 (RXF 393): 19.1 µM (inactive)
GI50 (HCT-15): 58.2 µM
GI50 (NCI-H460): 63.4 µM (inactive)
GI50 (MCF7): 41.5 µM (inactive)
GI50 (NCI/ADR-RES): 78.3 µM (inactive)
GI50 (SK-OV-3): 68.7 µM (inactive)
GI50 (COLO 205): 21.5 µM (inactive)
GI50 (Malme-3M): 68.5 µM (inactive)
GI50 (BT-549): 21.7 µM (inactive)

C1=C2C3=[N+](CCCCC3)CC2Cc2ccsc21 (stereo not drawn)
GI50 (A498): 39.8 µM (inactive)
GI50 (TK-10): 59.8 µM (inactive)
GI50 (K562): > 100 µM (inactive)
GI50 (NCI-H226): > 100 µM (inactive)
GI50 (PC-3): 39.5 µM (inactive)
GI50 (UO-31): > 100 µM (inactive)
GI50 (MDA-N): > 100 µM (inactive)
GI50 (OVCAR-3): 56.5 µM (inactive)
GI50 (MDA-MB-435): 60.3 µM (inactive)
GI50 (HOP-62): > 100 µM (inactive)
GI50 (SNB-75): 29.9 µM (inactive)
GI50 (HOP-92): 76.7 µM (inactive)
GI50 (SK-MEL-2): > 100 µM (inactive)
GI50 (M14): > 100 µM (inactive)
GI50 (SF-295): 44.3 µM (inactive)
GI50 (KM12): 30.4 µM (inactive)
GI50 (786-0): > 100 µM (inactive)
GI50 (EKVX): 53.5 µM (inactive)
GI50 (MOLT-4): > 100 µM (inactive)
GI50 (CAKI-1): > 100 µM (inactive)
GI50 (MDA-MB-231): > 100 µM (inactive)
GI50 (SNB-19): 81.1 µM (inactive)
GI50 (OVCAR-5): > 100 µM (inactive)
GI50 (T47D): 63.5 µM (inactive)
GI50 (NCI-H522): 39.7 µM (inactive)
GI50 (SF-268): 76.2 µM (inactive)
GI50 (SN12C): 67.9 µM (inactive)
GI50 (HCT-116): > 100 µM (inactive)
GI50 (UACC-257): 23.3 µM (inactive)
GI50 (HL-60): 66.1 µM (inactive)
GI50 (HT-29): 32.8 µM (inactive)
GI50 (SK-MEL-28): > 100 µM (inactive)
GI50 (DU-145): > 100 µM (inactive)
GI50 (LOX IMVI): 84.7 µM (inactive)
GI50 (OVCAR-8): 76.6 µM (inactive)
GI50 (CCRF-CEM): > 100 µM (inactive)
GI50 (A549): 21.5 µM (inactive)
GI50 (NCI-H23): 49.9 µM (inactive)
GI50 (ACHN): > 100 µM (inactive)
GI50 (UACC-62): > 100 µM (inactive)
GI50 (U-251): 17.2 µM (inactive)
GI50 (OVCAR-4): 43.4 µM (inactive)
GI50 (IGROV-1): > 100 µM (inactive)
GI50 (SW-620): 93.5 µM (inactive)
GI50 (Hs-578T): > 100 µM (inactive)
GI50 (SK-MEL-5): 53 µM (inactive)
GI50 (RXF 393): > 100 µM (inactive)
GI50 (HCT-15): > 100 µM
GI50 (NCI-H460): 29.9 µM (inactive)
GI50 (MCF7): 50.1 µM (inactive)
GI50 (NCI/ADR-RES): > 100 µM (inactive)
GI50 (SK-OV-3): > 100 µM (inactive)
GI50 (COLO 205): 40.6 µM (inactive)
GI50 (Malme-3M): 39.9 µM (inactive)
GI50 (BT-549): 51.2 µM (inactive)
